From patent US5856439A, “Farnesyl transferase inhibitors, preparation thereof, and pharmaceutical compositions containing same” (Rhone-Poulenc Rorer S.A., priority 1995, dated 1999)

Biological target: T1, human farnesyl transferase purified from THP1 cell cultures (Homo sapiens, UniProt P49354+P49356)
T1 construct: human farnesyl transferase purified from THP1 cell cultures; endogenous in cells; host or cells: THP1 cell cultures (enzyme purified from them)
Experiment: Farnesyl transferase inhibition: [3H]farnesyl transfer from [3H]FPP to p21 H-ras
Type: biochemical
Details: 20 minutes at 37° C., 9 concentrations, each test repeated 3 times, read-out: Inhibitory activity IC50
Method: Farnesyl transferase activity is determined by the quantity of [^3 H]farnesyl transferred from [^3 H]farnesyl pyrophosphate [[^3 H]FPP) to the p21 H-ras protein. The standard reaction mixture is composed, for a final volume of 60 μl, of 50 mM Tris-HCl, 5 mM MgCl2, 5 mM dithiotreitol, 0.2% octyl β-D-glucopyranoside, 200 picomol p21 H-ras, 4.5 picomol [^3 H]FPP (activity 61000 dpm/picomol).
Reaction is initiated by adding approximately 5 ng of human farnesyl transferase purified from THP1 cell cultures. After incubation for 20 minutes at 37° C. in a microtitration plate containing 96 1-cm^3 wells per plate (Titer Plate®, Beckman), the reaction is stopped by adding 0.4 cm^3 of 0.1% SDS in methanol at 0° C. The mixture is then treated with 0.4 cm^3 of 30% trichloroacetic acid® (TCA) in methanol. The plates are left in ice for 1 hour. […] The membranes are dried in a microwave oven, then impregnated with scintillation medium by melting Meltilex® (Pharmacia) under hot air, and lastly counted in cpm in a β-Plate® counter (LKB). […]
The percentage inhibition values are obtained by comparison of the tests with and without inhibitor after deduction of blanks, the IC50 values being measured on the basis of the inhibitions obtained with 9 different concentrations using Enzfitter® or Grafit® software.

| Substance | IC50 |
| --- | --- |
| Cys-(N-Me)Val-[cis-3-phenyl-DL-prolyl]-Met | 0.0155 µM |
| Cys-(N-Me)Val-[trans-3-phenyl-DL-prolyl]-Met | 0.92 µM |
